Assays:
Homo sapiens [1] = assay: Anti-osteoarthritis activity in knee osteoarthritis patient assessed as cartilage volume in medial condylar area dosed orally for 2 consecutive years by MRI method relative to control; type: functional
Homo sapiens [2] = assay: Anti-osteoarthritis activity in knee osteoarthritis patient assessed as cartilage volume in medial area dosed orally for 2 consecutive years by MRI method relative to control; type: functional

**Q.** For `Cc1ccc(-c2cc(C(F)(F)F)nn2-c2ccc(S(N)(=O)=O)cc2)cc1` [CELECOXIB], which “inhibition (INH)” value (Homo sapiens [1]) is on record?
**A.** 7.7%

**Q.** What about the “inhibition (INH)” value (Homo sapiens [2]) of the same molecule?
**A.** 8.1%
